{
  "source": "patent US7153979B2",
  "about": "“Triterpene derivatives and remedies for liver diseases” (Meiji Seika Kaisha, Ltd., priority 1996, dated 2006)",
  "tested_on": "hepatitis induced by concanavalin A in mice",
  "test": "Concanavalin A (Con A) hepatitis model, plasma ALT",
  "format": "in vivo, BALB/c male mice",
  "details": "24 hr after Con A, control group 2068±518",
  "experimental": "Effect in Concanavalin A (Con A) Hepatitis Model\nCon A dissolved in physiological saline was intravenously administered at a dose of 20 mg/kg to BALB/c male mice (8 weeks in age) having a body weight of 21 to 25 g to induce hepatitis. A test compound (compound 7) was suspended in a mixed solution (control vehicle) composed of 25% dimethylsufoxide, 25% polyethylene glycol 400, and 0.25% carboxymethyl cellulose, and the suspension was subcutaneously administered 2 hr and 14 hr before the administration of Con A at three levels of dose, i.e., 0.2 mg/mouse, 1.0 mg/mouse, and 2.0 mg/mouse. A control vehicle alone was administered to a group of control mice. Twenty four hr after the administration of Con A, the mice were sacrificed under ether anesthesia to assay the alanine aminotransferase (ALT) activity, in plasma, as an index of hepatopathy.",
  "data": [
    {"smiles": "CC1(C)C[C@H]2C3=CC[C@@H]4[C@@]5(C)CC[C@H](O)[C@](C)(CO)[C@@H]5CC[C@@]4(C)[C@]3(C)CC[C@@]2(C)[C@H](O)[C@@H]1O", "note": "[Compound 7, Soyasapogenol A]", "values": [
      {"measurement": "alanine aminotransferase (ALT) activity in plasma", "setting": "1.0 mg/mouse subcutaneously 2 hr and 14 hr before Con A 20 mg/kg i.v.", "value": "55±16", "unit": "u/l"},
      {"measurement": "alanine aminotransferase (ALT) activity in plasma", "setting": "2.0 mg/mouse subcutaneously 2 hr and 14 hr before Con A 20 mg/kg i.v.", "value": "55±16", "unit": "u/l"}
    ]}
  ]
}
